Compound in experiment [1]: CC1CC(=O)N(C2=CN=C(N=C2N1C3CCCC3)NC4=C(C=C(C=C4)C(=O)NC5CCN(CC5)C)OC)C [NPK76-II-72-1] + O=C(CCCCCCC(=O)Nc1ccccc1)NO [Vorinostat] (partner 1 µM)
Nature of the experiment: relative viability (nuclei count vs DMSO), 5 days (fraction); higher = more cells survive. The procedure, abridged:
(§1)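 Relative viability equals treated-well nuclei counts divided by vehicle-well nuclei counts. Counts came from 4× images of lung cancer cell lines grown in 1536-well plates for 5 days after pin-tool dosing on the day after seeding. Dosing used one drug alone or a fixed anchor-drug dose plus five library-drug doses (not always all listed) in √10 steps, and values are medians of duplicate plates.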

Compound in the experiment “NPK76-II-72-1 + AZD7762”: CC1CC(=O)N(C2=CN=C(N=C2N1C3CCCC3)NC4=C(C=C(C=C4)C(=O)NC5CCN(CC5)C)OC)C [NPK76-II-72-1] + NC(=O)Nc1cc(-c2cccc(F)c2)sc1C(=O)N[C@H]1CCCNC1 [AZD7762] (partner 0.2 µM)
The description is as above. A digest of the protocol: as §1

NCI-H1944: the relative viability was determined as 0.49 in experiment [1] (first compound 0.01 µM); 0.583 in experiment [1] (first compound 0.03162 µM); 0.508 in experiment [1] (first compound 0.1 µM); 0.485 in experiment [1] (first compound 0.3162 µM); 0.646 in experiment [1] (first compound 1 µM); 0.456 in the experiment with NPK76-II-72-1 + AZD7762 (first compound 0.01 µM). The relative viability was determined as 0.509 with NPK76-II-72-1 + AZD7762 (first compound 0.03162 µM), 0.779 with NPK76-II-72-1 + AZD7762 (first compound 0.1 µM), 0.572 with NPK76-II-72-1 + AZD7762 (first compound 0.3162 µM) and 0.595 with NPK76-II-72-1 + AZD7762 (first compound 1 µM).
As for NCI-H1648, the relative viability in experiment [1] (first compound 0.01 µM) was found to be 0.455; in experiment [1] (first compound 0.03162 µM), 0.536; in experiment [1] (first compound 0.1 µM), 0.319; in experiment [1] (first compound 0.3162 µM), 0.348; in experiment [1] (first compound 1 µM) it was 0.437; with NPK76-II-72-1 + AZD7762 (first compound 0.01 µM), 0.639. Moreover, the relative viability was found to be 0.563 in the experiment with NPK76-II-72-1 + AZD7762 (first compound 0.03162 µM), 0.57 with NPK76-II-72-1 + AZD7762 (first compound 0.1 µM), 0.66 in the experiment with NPK76-II-72-1 + AZD7762 (first compound 0.3162 µM) and 0.533 in the experiment with NPK76-II-72-1 + AZD7762 (first compound 1 µM).
On to 201T, for which the relative viability in experiment [1] (first compound 0.01 µM) was 0.803; in experiment [1] (first compound 0.03162 µM), 0.989; in experiment [1] (first compound 0.1 µM) it was 0.93; in experiment [1] (first compound 0.3162 µM), 0.962; in experiment [1] (first compound 1 µM), 1.14; with NPK76-II-72-1 + AZD7762 (first compound 0.01 µM), 0.579. In addition, the relative viability was found to be 0.759 with NPK76-II-72-1 + AZD7762 (first compound 0.03162 µM), 0.62 in the experiment with NPK76-II-72-1 + AZD7762 (first compound 0.1 µM), 0.618 with NPK76-II-72-1 + AZD7762 (first compound 0.3162 µM) and 0.619 with NPK76-II-72-1 + AZD7762 (first compound 1 µM).
NCI-H23: the relative viability in experiment [1] (first compound 0.01 µM) was 0.609; in experiment [1] (first compound 0.03162 µM) it was 0.657; in experiment [1] (first compound 0.1 µM) it was 0.637; in experiment [1] (first compound 0.3162 µM), 0.515; in experiment [1] (first compound 1 µM) it was 0.627; with NPK76-II-72-1 + AZD7762 (first compound 0.01 µM) it was 0.249. The relative viability is 0.246 with NPK76-II-72-1 + AZD7762 (first compound 0.03162 µM), 0.292 with NPK76-II-72-1 + AZD7762 (first compound 0.1 µM), 0.286 with NPK76-II-72-1 + AZD7762 (first compound 0.3162 µM) and 0.319 with NPK76-II-72-1 + AZD7762 (first compound 1 µM).
For the cell line LOU-NH91, the relative viability in experiment [1] (first compound 0.01 µM) came out at 0.89; in experiment [1] (first compound 0.03162 µM), 0.935; in experiment [1] (first compound 0.1 µM), 0.763; in experiment [1] (first compound 0.3162 µM), 0.814; in experiment [1] (first compound 1 µM), 1.06; with NPK76-II-72-1 + AZD7762 (first compound 0.01 µM), 0.728. Further, the relative viability in the experiment with NPK76-II-72-1 + AZD7762 (first compound 0.03162 µM) stood at 0.744; in the experiment with NPK76-II-72-1 + AZD7762 (first compound 0.1 µM), 0.723; with NPK76-II-72-1 + AZD7762 (first compound 0.3162 µM), 0.675; with NPK76-II-72-1 + AZD7762 (first compound 1 µM), 0.798.
On to NCI-H2085, for which the relative viability in experiment [1] (first compound 0.01 µM) is 0.731; in experiment [1] (first compound 0.03162 µM) it was 0.808; in experiment [1] (first compound 0.1 µM) it was 0.794; in experiment [1] (first compound 0.3162 µM), 0.821; in experiment [1] (first compound 1 µM), 0.842; in the experiment with NPK76-II-72-1 + AZD7762 (first compound 0.01 µM), 0.923. Moreover, the relative viability was found to be 1.02 with NPK76-II-72-1 + AZD7762 (first compound 0.03162 µM), 0.891 in the experiment with NPK76-II-72-1 + AZD7762 (first compound 0.1 µM), 1 with NPK76-II-72-1 + AZD7762 (first compound 0.3162 µM) and 1.16 in the experiment with NPK76-II-72-1 + AZD7762 (first compound 1 µM).
On to BEN, for which the relative viability in experiment [1] (first compound 0.01 µM) is 0.61; in experiment [1] (first compound 0.03162 µM), 0.711; in experiment [1] (first compound 0.1 µM), 0.598; in experiment [1] (first compound 0.3162 µM), 0.591; in experiment [1] (first compound 1 µM) it was 0.636; with NPK76-II-72-1 + AZD7762 (first compound 0.01 µM) it was 0.77. In addition, the relative viability with NPK76-II-72-1 + AZD7762 (first compound 0.03162 µM) was found to be 0.516; with NPK76-II-72-1 + AZD7762 (first compound 0.1 µM), 0.791; with NPK76-II-72-1 + AZD7762 (first compound 0.3162 µM), 0.572; in the experiment with NPK76-II-72-1 + AZD7762 (first compound 1 µM), 0.786.
As to ChaGo-K-1, the relative viability in experiment [1] (first compound 0.01 µM) amounted to 0.703; in experiment [1] (first compound 0.03162 µM), 0.735; in experiment [1] (first compound 0.1 µM), 0.809; in experiment [1] (first compound 0.3162 µM) it was 0.687; in experiment [1] (first compound 1 µM) it was 0.789; in the experiment with NPK76-II-72-1 + AZD7762 (first compound 0.01 µM), 0.829. In addition, the relative viability with NPK76-II-72-1 + AZD7762 (first compound 0.03162 µM) was determined as 0.873; with NPK76-II-72-1 + AZD7762 (first compound 0.1 µM), 0.833; in the experiment with NPK76-II-72-1 + AZD7762 (first compound 0.3162 µM), 0.809; with NPK76-II-72-1 + AZD7762 (first compound 1 µM), 0.839.
Regarding LK-2, the relative viability is 0.451 in experiment [1] (first compound 0.01 µM); 0.263 in experiment [1] (first compound 0.03162 µM); 0.36 in experiment [1] (first compound 0.1 µM); 0.165 in experiment [1] (first compound 0.3162 µM); 0.327 in experiment [1] (first compound 1 µM); 0.367 with NPK76-II-72-1 + AZD7762 (first compound 0.01 µM). In addition, the relative viability with NPK76-II-72-1 + AZD7762 (first compound 0.03162 µM) came to 0.42; in the experiment with NPK76-II-72-1 + AZD7762 (first compound 0.1 µM), 0.439; with NPK76-II-72-1 + AZD7762 (first compound 0.3162 µM), 0.323; with NPK76-II-72-1 + AZD7762 (first compound 1 µM), 0.379.
With NCI-H322M, the relative viability in experiment [1] (first compound 0.01 µM) is 0.886; in experiment [1] (first compound 0.03162 µM), 0.808; in experiment [1] (first compound 0.1 µM) it was 0.861; in experiment [1] (first compound 0.3162 µM), 1.01; in experiment [1] (first compound 1 µM), 0.913; in the experiment with NPK76-II-72-1 + AZD7762 (first compound 0.01 µM) it was 0.532. The relative viability in the experiment with NPK76-II-72-1 + AZD7762 (first compound 0.03162 µM) came out at 0.504; in the experiment with NPK76-II-72-1 + AZD7762 (first compound 0.1 µM), 0.52; with NPK76-II-72-1 + AZD7762 (first compound 0.3162 µM) it was 0.655; with NPK76-II-72-1 + AZD7762 (first compound 1 µM) it was 0.52.
With ABC-1, the relative viability in experiment [1] (first compound 0.01 µM) is 1; in experiment [1] (first compound 0.03162 µM), 1.13; in experiment [1] (first compound 0.1 µM), 0.356; in experiment [1] (first compound 0.3162 µM), 1.36; in experiment [1] (first compound 1 µM) it was 1.07; with NPK76-II-72-1 + AZD7762 (first compound 0.01 µM), 0.73. Besides, the relative viability came to 0.726 in the experiment with NPK76-II-72-1 + AZD7762 (first compound 0.03162 µM), 0.719 with NPK76-II-72-1 + AZD7762 (first compound 0.1 µM), 0.536 with NPK76-II-72-1 + AZD7762 (first compound 0.3162 µM) and 0.72 with NPK76-II-72-1 + AZD7762 (first compound 1 µM).
With NCI-H1666, the relative viability in experiment [1] (first compound 0.01 µM) amounted to 1.04; in experiment [1] (first compound 0.03162 µM) it was 0.996; in experiment [1] (first compound 0.1 µM), 0.983; in experiment [1] (first compound 0.3162 µM), 0.955; in experiment [1] (first compound 1 µM), 1.17; in the experiment with NPK76-II-72-1 + AZD7762 (first compound 0.01 µM) it was 0.84. Also, the relative viability in the experiment with NPK76-II-72-1 + AZD7762 (first compound 0.03162 µM) stood at 0.861; in the experiment with NPK76-II-72-1 + AZD7762 (first compound 0.1 µM) it was 0.852; in the experiment with NPK76-II-72-1 + AZD7762 (first compound 0.3162 µM), 0.752; with NPK76-II-72-1 + AZD7762 (first compound 1 µM), 1.01.
Turning to NCI-H1993, the relative viability in experiment [1] (first compound 0.01 µM) worked out at 0.486; in experiment [1] (first compound 0.03162 µM), 0.777; in experiment [1] (first compound 0.1 µM), 0.784; in experiment [1] (first compound 0.3162 µM) it was 0.725; in experiment [1] (first compound 1 µM), 0.728; in the experiment with NPK76-II-72-1 + AZD7762 (first compound 0.01 µM), 0.739. For the same cell line, the relative viability came out at 0.706 with NPK76-II-72-1 + AZD7762 (first compound 0.03162 µM), 0.97 in the experiment with NPK76-II-72-1 + AZD7762 (first compound 0.1 µM), 0.713 in the experiment with NPK76-II-72-1 + AZD7762 (first compound 0.3162 µM) and 0.914 with NPK76-II-72-1 + AZD7762 (first compound 1 µM).
Consider NCI-H1975, for which the relative viability in experiment [1] (first compound 0.01 µM) is 0.676; in experiment [1] (first compound 0.03162 µM) it was 0.736; in experiment [1] (first compound 0.1 µM), 0.662; in experiment [1] (first compound 0.3162 µM), 0.694; in experiment [1] (first compound 1 µM) it was 0.712; with NPK76-II-72-1 + AZD7762 (first compound 0.01 µM), 0.727. The relative viability with NPK76-II-72-1 + AZD7762 (first compound 0.03162 µM) turned out to be 0.733; with NPK76-II-72-1 + AZD7762 (first compound 0.1 µM), 0.686; in the experiment with NPK76-II-72-1 + AZD7762 (first compound 0.3162 µM) it was 0.694; with NPK76-II-72-1 + AZD7762 (first compound 1 µM), 0.734.
For the cell line HCC-44, the relative viability was 1.08 in experiment [1] (first compound 0.01 µM); 1.22 in experiment [1] (first compound 0.03162 µM); 1.11 in experiment [1] (first compound 0.1 µM); 1.09 in experiment [1] (first compound 0.3162 µM); 1.1 in experiment [1] (first compound 1 µM); 1.02 with NPK76-II-72-1 + AZD7762 (first compound 0.01 µM). Further, the relative viability with NPK76-II-72-1 + AZD7762 (first compound 0.03162 µM) worked out at 1.09; with NPK76-II-72-1 + AZD7762 (first compound 0.1 µM), 0.966; with NPK76-II-72-1 + AZD7762 (first compound 0.3162 µM), 0.999; with NPK76-II-72-1 + AZD7762 (first compound 1 µM), 1.07.

(Values after the supplement of paper PMC10307832.)
